This is an account of results in ChEMBL document CHEMBL1208747, “Derivatives of tetrahydroisoquinoline: synthesis and initial evaluation of novel non-peptide antagonists of the alpha(IIb)beta(3)-integrin” (Bioorg Med Chem Lett, 2010).

Test [1] in a line: Antagonist activity at FITC-tagged […] integrin in human platelet rich plasma.
In test [2] the target is T1, Integrin alpha-IIb/beta-3 (Homo sapiens, UniProt P05106+P08514). Description: Antagonist activity at FITC-tagged […] integrin in human platelet rich plasma. The class given is functional, cell-free.
Test [3] concerns the target T1, Integrin alpha-IIb/beta-3. In words: Antagonist activity at FITC-tagged alphaIIbbeta3 integrin in human platelet assessed as inhibition of FITC-fibrinogen binding on washed platelets.

T1 sequence (P05106 27-788 limits assumed): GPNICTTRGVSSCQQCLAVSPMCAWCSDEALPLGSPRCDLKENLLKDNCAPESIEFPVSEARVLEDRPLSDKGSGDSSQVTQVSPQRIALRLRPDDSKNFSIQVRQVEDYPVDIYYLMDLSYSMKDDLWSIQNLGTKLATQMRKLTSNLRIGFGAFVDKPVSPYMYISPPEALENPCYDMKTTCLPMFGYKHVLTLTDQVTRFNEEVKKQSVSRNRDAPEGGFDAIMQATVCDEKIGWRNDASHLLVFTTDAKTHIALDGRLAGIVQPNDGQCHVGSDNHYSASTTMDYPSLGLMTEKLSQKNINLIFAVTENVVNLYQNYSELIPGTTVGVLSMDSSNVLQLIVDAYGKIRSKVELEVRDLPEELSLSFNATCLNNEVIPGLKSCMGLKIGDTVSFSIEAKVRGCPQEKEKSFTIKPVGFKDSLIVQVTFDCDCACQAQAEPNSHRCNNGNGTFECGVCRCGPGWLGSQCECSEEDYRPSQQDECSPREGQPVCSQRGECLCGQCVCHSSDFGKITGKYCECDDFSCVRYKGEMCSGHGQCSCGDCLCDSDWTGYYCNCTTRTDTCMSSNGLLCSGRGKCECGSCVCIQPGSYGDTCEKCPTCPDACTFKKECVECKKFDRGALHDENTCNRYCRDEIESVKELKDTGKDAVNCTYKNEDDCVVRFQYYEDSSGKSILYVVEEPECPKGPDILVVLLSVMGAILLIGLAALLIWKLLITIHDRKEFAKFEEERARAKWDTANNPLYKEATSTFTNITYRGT
T1 sequence (P08514 32-887 limits assumed): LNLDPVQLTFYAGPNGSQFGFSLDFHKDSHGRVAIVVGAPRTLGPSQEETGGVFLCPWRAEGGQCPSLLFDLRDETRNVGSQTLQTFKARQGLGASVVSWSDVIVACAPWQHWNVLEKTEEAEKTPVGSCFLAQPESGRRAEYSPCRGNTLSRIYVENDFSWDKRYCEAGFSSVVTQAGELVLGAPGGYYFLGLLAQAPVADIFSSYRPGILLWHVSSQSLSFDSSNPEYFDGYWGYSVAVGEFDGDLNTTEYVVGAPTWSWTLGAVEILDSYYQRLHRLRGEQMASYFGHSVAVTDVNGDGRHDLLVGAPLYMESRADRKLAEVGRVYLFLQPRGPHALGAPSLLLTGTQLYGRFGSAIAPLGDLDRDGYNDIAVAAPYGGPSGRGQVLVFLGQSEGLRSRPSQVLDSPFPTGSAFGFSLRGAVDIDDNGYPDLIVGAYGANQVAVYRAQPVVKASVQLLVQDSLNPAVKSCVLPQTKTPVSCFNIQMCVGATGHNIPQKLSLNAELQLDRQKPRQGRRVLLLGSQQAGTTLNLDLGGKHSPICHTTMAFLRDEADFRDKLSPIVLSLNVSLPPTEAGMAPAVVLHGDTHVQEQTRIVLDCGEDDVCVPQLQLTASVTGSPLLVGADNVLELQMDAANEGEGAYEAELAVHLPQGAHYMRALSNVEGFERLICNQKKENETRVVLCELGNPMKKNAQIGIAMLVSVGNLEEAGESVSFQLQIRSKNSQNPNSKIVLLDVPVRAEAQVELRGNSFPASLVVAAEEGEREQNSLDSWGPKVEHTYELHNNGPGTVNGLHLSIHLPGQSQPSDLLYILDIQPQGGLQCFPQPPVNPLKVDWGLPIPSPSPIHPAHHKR
T1 sequence (P08514 891-1039 limits assumed): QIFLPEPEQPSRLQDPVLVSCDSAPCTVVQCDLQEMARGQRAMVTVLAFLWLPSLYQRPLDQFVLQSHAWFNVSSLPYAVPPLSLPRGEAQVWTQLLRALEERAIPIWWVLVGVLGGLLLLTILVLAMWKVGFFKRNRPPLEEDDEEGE

`O=C(O)CC(NC(=O)CCC(=O)Nc1ccc2c(c1)CNC2)c1ccccc1` (centres undefined) came in with an IC50 in test [1] of 860 nM. For `Cc1ccc(C(CC(=O)O)NC(=O)CCC(=O)Nc2ccc3c(c2)CNCC3)cc1` (centres undefined), the values for the IC50 in test [2] and in test [3] were 96 nM and 0.9 nM, respectively. The like results for `COc1ccc(C(CC(=O)O)NC(=O)CCC(=O)Nc2ccc3c(c2)CNCC3)cc1` (centres undefined) were, in that order, 310 nM and 3.5 nM. Turning to `CC(C)Oc1ccc(C(CC(=O)O)NC(=O)CCC(=O)Nc2ccc3c(c2)CNCC3)cc1` (centres undefined), the midpoint of inhibition in test [2], the IC50, lay at 87 nM. Take `COc1ccc(C(CC(=O)O)NC(=O)CCC(=O)Nc2ccc3c(c2)CNCC3)cc1OC` (centres undefined): the figures for the 50% inhibitory concentration (IC50) in test [2] and in test [3] were 64 nM and 0.63 nM, respectively. In the case of `CCOc1ccc(C(CC(=O)O)NC(=O)CCC(=O)Nc2ccc3c(c2)CNCC3)cc1OC` (centres undefined), the IC50 in test [2] was found to be 510 nM. `O=C(O)CC(NC(=O)CCC(=O)Nc1ccc2c(c1)CNCC2)c1ccc2c(c1)OCO2` (centres undefined): the IC50 in test [2] was found to be 90 nM; in test [3], 0.4 nM.

In the case of `O=C(O)CC(NC(=O)CCC(=O)Nc1ccc2c(c1)CNCC2)c1cccc2ccccc12` (centres undefined), half-maximal inhibition in test [2] (IC50) was put at 5200 nM. For `COc1ccc(C(CC(=O)O)NC(=O)CCCC(=O)Nc2ccc3c(c2)CNCC3)cc1` (centres undefined), the half-maximal inhibitory concentration (IC50) is 4200 nM in test [2] and 18 nM in test [3]. The matching figures for `COc1ccc(C(CC(=O)O)NC(=O)CCCC(=O)Nc2ccc3c(c2)CNCC3)cc1OC` (centres undefined): 127 nM and 5 nM. The like results for `O=C(O)CC(NC(=O)CCCC(=O)Nc1ccc2c(c1)CNCC2)c1ccc2c(c1)OCO2` (centres undefined) were, in that order, 53 nM and 0.78 nM.

On to `COc1ccc(C(CC(=O)O)NC(=O)CCC(=O)Nc2ccc3c(c2)CNC3)cc1` (centres undefined), for which the 50% inhibitory concentration (IC50) worked out at 160 nM in test [2] and 2.6 nM in test [3]. The matching figures for `CC(C)Oc1ccc(C(CC(=O)O)NC(=O)CCC(=O)Nc2ccc3c(c2)CNC3)cc1` (centres undefined): 105 nM and 6 nM. The matching figures for `COc1ccc(C(CC(=O)O)NC(=O)CCC(=O)Nc2ccc3c(c2)CNC3)cc1OC` (centres undefined): 890 nM and 9 nM. On to `O=C(O)CC(NC(=O)CCC(=O)Nc1ccc2c(c1)CNC2)c1ccc2c(c1)OCO2` (centres undefined), for which the IC50 in test [2] amounted to 31 nM; in test [3] it was 0.22 nM. For `O=C(O)CCNC(=O)CCC(=O)Nc1ccc2c(c1)CNCC2`, the 50% inhibitory concentration (IC50) was determined as 30 nM in test [2] and 1.21 nM in test [3]. On to `O=C(O)CC(NC(=O)CCC(=O)Nc1ccc2c(c1)CNCC2)c1ccccc1` (centres undefined), for which the results for the half-maximal inhibitory concentration (IC50) in test [2] and in test [3] were 13 nM and 1.01 nM, respectively. `O=C(O)CC(NC(=O)CCC(=O)Nc1ccc2c(c1)CNCC2)c1ccc(F)cc1` (centres undefined): the concentration for half-maximal inhibition (IC50) in test [2] came out at 8.9 nM; in test [3], 1 nM. For the molecule `O=C(O)CC(NC(=O)CCC(=O)Nc1ccc2c(c1)CNCC2)c1cccc(F)c1` (centres undefined), the half-maximal inhibitory concentration (IC50) in test [2] came out at 10000 nM; in test [3], 1100 nM. The matching figures for `O=C(O)CC(NC(=O)CCC(=O)Nc1ccc2c(c1)CNCC2)c1ccccc1F` (centres undefined): 570 nM and 5 nM.

Consider `O=C(O)CC(NC(=O)CCC(=O)Nc1ccc2c(c1)CNCC2)c1ccc(Cl)cc1` (centres undefined), for which the IC50 was 2000 nM in test [2] and 65 nM in test [3]. Take `COc1ccc(C(CC(=O)O)NC(=O)c2cccc(C(=O)Nc3ccc4c(c3)CNCC4)c2)cc1` (centres undefined): the concentration for half-maximal inhibition (IC50) in test [2] is 17 nM; in test [3], 0.8 nM. As for `O=C(O)CC(NC(=O)c1cccc(C(=O)Nc2ccc3c(c2)CNCC3)c1)c1ccccc1` (centres undefined), the results for the 50% inhibitory concentration (IC50) in test [2] and in test [3] were 25 nM and 1 nM, respectively.

Take `COc1ccc(C(CC(=O)O)NC(=O)c2cccc(C(=O)Nc3ccc4c(c3)CNCC4)c2)cc1OC` (centres undefined): the IC50 in test [2] came to 11.6 nM; in test [3], 0.7 nM.

As a reminder, the IC50 is the point on the concentration scale where inhibition reaches its midpoint.
